Test results: patent US20230348447A1, “OXAZOLIDINONE COMPOUNDS, LIPOSOME COMPOSITIONS COMPRISING OXAZOLIDINONE COMPOUNDS AND METHOD OF USE THEREOF” (priority 2020, published 2023)
Converted amounts (≈) assume the structure as drawn. Like-named read-outs stand apart in the source and are kept apart here.

Experiments:
[1] = tested on: M. Tuberculosis Erdman or H37Rv vs VERO or HepG2 cells; assay: Selectivity Index (mammalian cell IC50 / bacterial MIC); parameters: species or system Mycobacterium tuberculosis
[2] = tested on: human hepatocyte/liver (HepG2; ATCC #HB8065) cells; assay: In vitro cytotoxicity (PrestoBlue cell viability), HepG2; format: cell-based
M.tb Erdman = assay: Broth microdilution MIC with Alamar blue endpoint (MABA) / OD600; format: cell-based, Mycobacterium tuberculosis
[3] = tested on: African green monkey kidney (Vero; ATCC # CCL81) cells; assay: In vitro cytotoxicity (PrestoBlue cell viability), Vero; format: cell-based
M.tb H37Rv = assay: Broth microdilution MIC with Alamar blue endpoint (MABA) / OD600; format: cell-based, Mycobacterium tuberculosis
[4] = Liposome loading / encapsulation efficiency (General protocol)
[5] = Homo sapiens, HepG2, 72 h; read-out: Cell viability IC50, HepG2
[6] = Mycobacterium tuberculosis, ERDMAN; read-out: Mycobacterium tuberculosis MIC, Erdman
[7] = Chlorocebus sabaeus, Vero, 72 h; read-out: Cell viability IC50, VERO
[8] = Mycobacterium tuberculosis, H37RV; read-out: Mycobacterium tuberculosis MIC, H37Rv
[9] = Mycobacterium tuberculosis, ERDMAN, read-out: Mycobacterium tuberculosis MIC, Erdman
[10] = Mycobacterium tuberculosis, H37RV, read-out: Mycobacterium tuberculosis MIC, H37Rv
[11] = Homo sapiens, HepG2, 72 h, read-out: Cell viability IC50, HepG2
[12] = Chlorocebus sabaeus, Vero, 72 h, read-out: Cell viability IC50, VERO

Compound	Selectivity Index (SI) Erd/HepG2 [1]	Selectivity Index (SI) Erd/VERO [1]	IC50 [2, 5] [µg/mL]	MIC (M.tb Erdman; [6]) [µg/mL]	IC50 [3, 7] [µg/mL]	MIC (M.tb H37Rv; [8]) [µg/mL]	further results
CN(C)C[C@H]1CN(c2ccc(-c3ccc(-c4nnn(C)n4)nc3)c(F)c2)C(=O)O1 [AKG-1]	<14.5	<14.1	116 (≈ 292 µM)	> 8	113 (≈ 283 µM)	> 8	
CCN(CC)C[C@H]1CN(c2ccc(-c3ccc(-c4nnn(C)n4)nc3)c(F)c2)C(=O)O1 [AKG-2]	<3.1	<8.5	24.5 (≈ 57.6 µM)	> 8	67.9 (≈ 160 µM)	> 8	
CN(C)CCCC(=O)OC[C@H]1CN(c2ccc(-c3ccc(-c4nnn(C)n4)nc3)c(F)c2)C(=O)O1 [AKG-5]	30.8		30.8 (≈ 63.7 µM)	1 (≈ 2.07 µM)	32.5 (≈ 67.2 µM)	1 (≈ 2.07 µM)	Maximum encapsulated drug payload ([4]; 0.5 M AS, 0.5 mol% PEG): 627 g/mol PhL; loading efficiency at or near the maximum drug load ([4]; 1 N TEA-SOS, DL0 750-1500 g/mol PhL): ≥ 96.0%; maximum drug load ([4]; 1 N TEA-SOS, DL0 750-1500 g/mol PhL, no buffer): 982-1197 g/mol PhL; stability during liposome loading (HPLC) ([4]; Example 12): Degradation of AKG-5 during the liposome loading was detected; Drug loading efficiency ([4]; PEG-DSG 0.5 mol%, 1 N TEA-SOS, DL0 500 g/mol PhL): 101.3; Drug loading efficiency ([4]; PEG-DSG 0.5 mol%, […] AS, DL0 250 g/mol PhL): 98.5; Drug loading efficiency ([4]; PEG-DSG 0.5 mol%, […] AS, DL0 500 g/mol PhL): 97.7; Drug loading efficiency ([4]; PEG-DSG 5 mol%, 1 N TEA-SOS, DL0 500 g/mol PhL): 99.3
CN(C)CCC1CCN(C[C@H]2CN(c3ccc(-c4ccc(-c5nnn(C)n5)nc4)c(F)c3)C(=O)O2)CC1 [AKG-6]	<1.9	3.4	15.5 (≈ 30.5 µM)	> 8	27.4 (≈ 53.9 µM)	> 8	
CCN(CC)CCOC[C@H]1CN(c2ccc(-c3ccc(-c4nnn(C)n4)nc3)c(F)c2)C(=O)O1 [AKG-7]	<1.4	13.0	11.2 (≈ 23.9 µM)	> 8	104 (≈ 221 µM)	> 8	
CCN(CC)CCCNC[C@H]1CN(c2ccc(-c3ccc(-c4nnn(C)n4)nc3)c(F)c2)C(=O)O1 [AKG-8]							MIC (M.tb Erdman; [9]): > 8 µg/mL; MIC (M.tb H37Rv; [10]): > 8 µg/mL
CCN(CC)CCNC[C@H]1CN(c2ccc(-c3ccc(-c4nnn(C)n4)nc3)c(F)c2)C(=O)O1 [AKG-9]	<3.5	<17.4					IC50 [2, 11]: 28.1 µg/mL (≈ 60 µM); MIC (M.tb Erdman; [9]): > 8 µg/mL; IC50 [3, 12]: 139 µg/mL (≈ 297 µM); MIC (M.tb H37Rv; [10]): > 8 µg/mL
CN(C)CCC1CCN(c2ccc(-c3ccc(N4C[C@H](CO)OC4=O)cc3F)cn2)CC1 [AKG-11]	10.7	8.0	42.8 (≈ 96.7 µM)	4 (≈ 9.04 µM)	31.9 (≈ 72.1 µM)	4 (≈ 9.04 µM)	
CN(C)CCNc1ccc(-c2ccc(N3C[C@H](CO)OC3=O)cc2F)cn1 [AKG-12]	16.9	22.3					IC50 [2, 11]: 67.6 µg/mL (≈ 181 µM); MIC (M.tb Erdman; [9]): 4 µg/mL (≈ 10.7 µM); IC50 [3, 12]: 89.1 µg/mL (≈ 238 µM); MIC (M.tb H37Rv; [10]): 4 µg/mL (≈ 10.7 µM)
CCN(CC)CCNc1ccc(-c2ccc(N3C[C@H](CO)OC3=O)cc2F)cn1 [AKG-13]	<4.0	<11.7	31.8 (≈ 79 µM)	> 8	93.9 (≈ 233 µM)	> 8	
CN(C)CCCNc1ccc(-c2ccc(N3C[C@H](CO)OC3=O)cc2F)cn1 [AKG-14]				8 (≈ 20.6 µM)		8 (≈ 20.6 µM)	
CCN(CC)CCCNc1ccc(-c2ccc(N3C[C@H](CO)OC3=O)cc2F)cn1 [AKG-15]	<4.5	<19.5	35.6 (≈ 85.5 µM)	> 8	156 (≈ 375 µM)	> 8	
Cl.Cn1nnc(-c2ccc(-c3ccc(N4C[C@H](CNC(=O)CCN)OC4=O)cc3F)cn2)n1 [AKG-17]							Cell viability IC50, HepG2 ([2]; 72 h): 37.3 µg/mL; Mycobacterium tuberculosis MIC, Erdman (M.tb Erdman): 2 µg/mL; Cell viability IC50, VERO ([3]; 72 h): >250 µg/mL; Mycobacterium tuberculosis MIC, H37Rv (M.tb H37Rv): 2 µg/mL
Cl.Cn1nnc(-c2ccc(-c3ccc(N4C[C@H](CNC(=O)CCCN)OC4=O)cc3F)cn2)n1 [AKG-18]							Cell viability IC50, HepG2 ([2]; 72 h): 9.5 µg/mL; Mycobacterium tuberculosis MIC, Erdman (M.tb Erdman): 2 µg/mL; Cell viability IC50, VERO ([3]; 72 h): >250 µg/mL; Mycobacterium tuberculosis MIC, H37Rv (M.tb H37Rv): 2 µg/mL
Cl.Cn1nnc(-c2ccc(-c3ccc(N4C[C@H](CNC(=O)CCN)OC4=O)cc3F)cn2)n1 [AKG-19]	5.3	>31.3	42.2	> 8	> 250	> 8	
CCN(CC)CCC(=O)OC[C@H]1CN(c2ccc(-c3ccc(-c4nnn(C)n4)nc3)c(F)c2)C(=O)O1 [AKG-20]	30.2	>500	15.1 (≈ 30.3 µM)	0.5 (≈ 1 µM)	> 250	0.5 (≈ 1 µM)	
CN(C)CCn1nnnc1-c1ccc(-c2ccc(N3C[C@H](CO)OC3=O)cc2F)cn1 [AKG-21]	<19.5		156 (≈ 366 µM)	> 8	> 250	> 8	
Cl.NCCn1nnc(-c2ccc(-c3ccc(N4C[C@H](CO)OC4=O)cc3F)cn2)n1 [AKG-23]	29.2	>1000	7.3	0.25	> 250	0.25	
CCN(CC)CCn1nnc(-c2ccc(-c3ccc(N4C[C@H](CO)OC4=O)cc3F)cn2)n1 [AKG-24]	11.4	31.3	11.4 (≈ 25 µM)	1 (≈ 2.2 µM)	31.3 (≈ 68.7 µM)	1 (≈ 2.2 µM)	
CN(C)CCCn1nnc(-c2ccc(-c3ccc(N4C[C@H](CO)OC4=O)cc3F)cn2)n1 [AKG-25]	9.4	182.0	9.4 (≈ 21.3 µM)	1 (≈ 2.27 µM)	182 (≈ 412 µM)	1 (≈ 2.27 µM)	
CCN(CC)CCCn1nnc(-c2ccc(-c3ccc(N4C[C@H](CO)OC4=O)cc3F)cn2)n1 [AKG-26]	4.5	64.3	9 (≈ 19.2 µM)	2 (≈ 4.26 µM)	128 (≈ 274 µM)	2 (≈ 4.26 µM)	
Cl.NCCCn1nnc(-c2ccc(-c3ccc(N4C[C@H](CO)OC4=O)cc3F)cn2)n1 [AKG-27]	18.0	11.2	9	0.5	5.6	0.5	
CCN(CC)CCCn1nnc(-c2ccc(-c3ccc(N4C[C@H](CN)OC4=O)cc3F)cn2)n1 [AKG-31]	26.4	223.0					
COc1nc2ccc(Br)cc2cc1[C@@H](c1ccccc1)[C@@](O)(CCN(C)C)c1cccc2ccccc12 [Bedaquiline, reference compound]							MIC (M.tb Erdman; Mycobacterium tuberculosis; M. tuberculosis Erdman / H37Rv, strains not separated; read-out: MIC): 0.125 µg/mL (≈ 0.225 µM)
